Data: patent publication US20260076983A1, “CANNABINOIDS COMPOSITIONS WITH POLYUNSATURATED FATTY ACID MONOGLYCERIDES AS A SPECIFIC COX-2 INHIBITOR, METHODS AND USES THEREOF” (SCF PHARMA INC., priority 2022, published 2026)

Molecular target: T1, COX-2 enzyme (Homo sapiens, UniProt P35354)
T1 construct: PGE2 levels in lipopolysaccharide (LPS)-challenged human whole blood; from tissue; host or cells: human whole blood (heparin tube) from one volunteer, LPS-challenged ex vivo
T1 sequence (P35354 18-604): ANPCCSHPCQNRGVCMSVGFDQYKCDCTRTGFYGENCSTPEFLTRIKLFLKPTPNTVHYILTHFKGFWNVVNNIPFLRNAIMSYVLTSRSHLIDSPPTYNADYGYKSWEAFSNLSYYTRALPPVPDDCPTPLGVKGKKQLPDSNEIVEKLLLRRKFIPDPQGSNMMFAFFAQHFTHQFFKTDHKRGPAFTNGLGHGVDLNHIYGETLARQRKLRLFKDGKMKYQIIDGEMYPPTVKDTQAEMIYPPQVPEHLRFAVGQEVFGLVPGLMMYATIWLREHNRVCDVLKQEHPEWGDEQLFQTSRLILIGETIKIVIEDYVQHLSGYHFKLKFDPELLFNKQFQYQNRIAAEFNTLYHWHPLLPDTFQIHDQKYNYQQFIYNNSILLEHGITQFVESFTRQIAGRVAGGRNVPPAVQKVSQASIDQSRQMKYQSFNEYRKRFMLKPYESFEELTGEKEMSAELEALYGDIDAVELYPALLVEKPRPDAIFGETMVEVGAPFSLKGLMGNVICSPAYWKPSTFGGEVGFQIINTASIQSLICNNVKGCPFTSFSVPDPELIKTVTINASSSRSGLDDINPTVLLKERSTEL
Test: PGE2 levels in LPS-challenged human whole blood after oral capsules (human case study)
Type: in vivo
Conditions: cross-over, blood 3.5 h after dosing
Experimental: 200 mg of cannabidiol (CBD) dissolved in 2.0 g of MCT oil, 2.0 g of compound of formula (IV) alone and 200 mg of cannabidiol (CBD) dissolved in 2.0 g of compound of formula (IV) were separately encapsulated in four (4) hard gel capsules (size 00) for a cross over COX-2 case study. A pilot cross-over case study was conducted in one volunteer over a three (3) week periods with one experiment per week. In the morning of the experiment, 10 ml of blood was collected in heparin tube from the volunteer fasted for 10 h. The four (4) hard gel capsules were swallowed with a glass of water and blood collection was repeated after 3.5 h. PGE2 levels in lipopolysaccharide (LPS)-challenged human whole blood was measured as biochemical index for cyclooxygenase COX-2 activity (Brideau C, Kargman S, Liu S, Dallob A L, Ehrich E W, Rodger I W, Chan C C. A human whole blood assay for clinical evaluation of biochemical efficacy of cyclooxygenase inhibitors. Inflamm Res. 1996 February; 45(2):68-74. doi: 10.1007/BF02265118. PMID: 8907587).
100 mg of cannabidiol (CBD) dissolved in 2.0 g of compound of formula (IV) was encapsulated in four (4) hard gel capsules (size 00) for COX-1 and COX-2 case study. A pilot case study was conducted in one volunteer. In the morning of the case study, 20 ml of blood was collected (1×10 ml serum tube and 1×10 ml heparin tube) from the volunteer fasted for 10 h. […]

CC/C=C\C/C=C\C/C=C\C/C=C\C/C=C\CCCC(=O)OCC(O)CO (centres unmarked) [compound of formula (IV)]
inhibition of the COX-2 enzyme (Example 1, one volunteer, oral hard gel capsules, 200 mg CBD in 2.0 g MCT oil, 2.0 g compound of formula (IV) alone, 200 mg CBD in 2.0 g compound of formula (IV)): 10% | inhibition of the COX-2 enzyme (in words) (Example 3, one volunteer, 2.0 g compound of formula (IV), oral capsules): mild inhibition
